Consider one compound from patent publication US10028955B2, “FGFR inhibitor for use in the treatment of hypophosphatemic disorders” (Novartis AG, priority 2012, dated 2018).

“Also recorded” adds a separate entry of the source.

One assay has as its system Hyp mice. Nature of the assay: Long-term (8 weeks, 3 qw) treatment of Hyp mice: bone radiography, micro-CT, histology/histomorphometry. The class given is in vivo, mouse. The settings on record: 50 mg/kg 3 qw for 56 days. Here is the method:
Radiographs of femur and tibia were taken ex vivo using a high-resolution radiography system (Faxitron MX-20). μCT measurements were performed ex vivo using a Scanco vivaCT 40 system (voxel size 6 μm; high resolution). For cancellous and cortical bone analyses a fixed threshold of 200 was used to determine the mineralized bone fraction from 50 slices. A Gaussian filter was applied to remove noise (σ=0.7; support=1).
As shown on FIG. 7 long-term FGFR inhibition enhances growth of long bones in Hyp mice. Taken together, these above results illustrate the beneficial effect of pharmacological FGFR inhibition in the context of aberrant FGF23 signaling and indicate a potential alleviation of the bone formation deficiency of Hyp mice. […] On FIG. 7.: Radiographs of femur (FIG. 7A) and tibia (FIG. 7B) from wild-type or Hyp mice treated with the FGFR inhibitor BGJ398 (50 mg/kg) or vehicle 3 qw for 56 days. Quantification of femoral (FIG. 7C) and tibial (FIG. 7D) length. Data are shown as average with SEM (n≥6). Data were compared by unpaired Student's t test; * p<0.05; ** p<0.01; *** p<0.001; n. s.: not significant.
Long-term FGFR inhibition improves cortex integrity in femoral bone of Hyp mice. To determine the effect of FGFR inhibitor treatment on bone structure in more detail, we performed microcomputed tomography (CT) analyses of the femoral cortex (sub growth plate area) from wild-type or Hyp mice treated with the FGFR inhibitor BGJ398 (50 mg/kg) or vehicle 3 qw for 56 days (FIG. 8A). Further relative cortical bone volume was quantified (FIG. 8B) and average cortex thickness determined (FIG. 8C).
Long-term treatment with BGJ398 restores growth plate organization Hyp mice. we also found an ameliorative effect of BGJ398-treatment on growth plate organization in Hyp mice in tibial histological sections (FIG. 9A). […] Mineralized tissue is indicated by white arrows, unmineralized osteoid is visualized by dark grey (indicated by black arrows). Growth plate structure is shown by light grey staining in the central part of the sections (FIG. 9B). Osteoid surface/bone surface and osteoid width (FIG. 9C) determined by histomorphometry in the tibial epiphysis of wild-type or Hyp mice treated with BGJ398 (50 mg/kg) or vehicle 3 qw for 56 days. Data are shown as average with SEM (n≥6). Data were compared by unpaired Student's t test; * p<0.05; ** p<0.01; *** p<0.001. In vehicle-treated Hyp mice the columnar organization and directional growth of chondrocytes was disturbed in contrast to the highly ordered structure in wild-type mice. In addition, mineralization was impaired in control Hyp mice, as indicated by the abundance of unmineralized osteoid.

Assay [1] concerns renal FGF23 target genes Cyp27b1 and Cyp24a1. Nature of the assay: Renal FGF23 target gene expression (qPCR) after single oral dose in wild-type and Hyp mice. Type of assay: in vivo, mouse. The settings on record: both wild-type and Hyp mice, single oral dose 50 mg/kg, 7 h. The text has this: FGFR inhibitor treatment induces 1,25(OH)2D3 biosynthesis and alleviates hypocalcemia and hypophosphatemia in Hyp mice. Wild-type C57BL/6 and Hyp (B6.Cg-PhexHyp/J) mice were obtained from The Jackson Laboratory. Dmp1-null mice were generated by Feng et al. (J. Dent. Res. 2003; 82:776-780.). All mice were kept in cages under standard laboratory conditions. Mice were fed on a standard rodent diet with water ad libitum.
Wild-type or Hyp mice received a single oral dose of the FGFR inhibitor BGJ398 in its free base form (50 mg/kg) or vehicle and were studied 7 h after administration of the compound. BGJ398 or vehicle only (PEG-300/Glucose 5%, 2:1 mix) was administered by oral gavage. Mice were used at 5-7 weeks of age in the case of single dose administrations. […] Concentrations of BGJ398 in kidney at 7 h was also determined. […]
Gene expression was analyzed by quantitative real-time PCR (qPCR). […] Quantitative real-time PCR was performed in an iQ5 Real-Time PCR Detection System using a qPCR core kit for probe assay and an equivalent of 40 or 80 ng RNA of each sample. […]
FGF23 exerts its hypophosphatemic functions in part by transcriptional regulation of the 1,25(OH)2D3-metabolizing enzymes CYP27B1 and CYP24A1 in the kidney. We therefore monitored renal Cyp27b1 and Cyp24a1 expression upon single dose treatment with BGJ398 in Hyp mice and wild-type littermates.
In general terms: Real-time PCR tracks product formation cycle by cycle.

With `CCN1CCN(c2ccc(Nc3cc(N(C)C(=O)Nc4c(Cl)c(OC)cc(OC)c4Cl)ncn3)cc2)CC1` [BGJ398, 3-(2,6-Dichloro-3,5-dimethoxy-phenyl)-1-{6-[4-(4-ethyl-piperazin-1-yl)-phenylamino]-pyrimid-4-yl}-1-methyl-urea], in the assay with Hyp mice, the “femoral cortex integrity (micro-CT)” value is recorded as “appeared intact”; the “mineralization in the epiphyseal bone area adjacent to the growth plate” value was “enhanced mineralization”; the “primary spongiosa in the metaphyseal sub-growth plate area” value is on record as “formation of primary spongiosa”; the “widening of femoral and tibial growth plate areas” value is “partially alleviate”. Moreover, in the assay on Hyp mice (50 mg/kg), the “growth plate organization (tibial sections, Goldner staining)” value is reported as “striking re-organization of the growth plate area”. Also, in the assay on Hyp mice (vs vehicle Hyp), the “femur length (radiography)” value was “significant elongation” and the “tibia length (radiography)” value is recorded as “significant elongation”. Further, the osteoid width result in the assay on Hyp mice (epiphyseal, metaphyseal and cortical bone compartments) was “strong reduction”. Besides, the “relative cortical bone volume” value in the assay on Hyp mice (femoral cortex, 50 mg/kg) is reported as “increases from pathological values to indistinguishable with normal values; also recorded: indistinguishable from wild-type mice”. In the assay on Hyp mice (femoral cortex, vs vehicle Hyp, 50 mg/kg), the average cortex thickness result is given as “significantly increased compared to vehicle-treated Hyp mice”. In addition, the “Osteoid surface/bone surface (OS/BS ratio)” value with Hyp mice (histomorphometry) is recorded as “attenuation of the increased OS/BS ratio”. Besides, in the assay with Hyp mice (tibial sections), the “columnar stacks of chondrocytes” value is recorded as “re-formation” and the “height of the proliferative zone” value was “increased height”. In assay [1], the “renal Cyp24a1 expression” value is on record as “almost complete loss of Cyp24a1 expression” and the “renal Cyp27b1 expression” value is on record as “increased Cyp27b1 levels”.
